Columns and labels:
[1] = test system: SKOV-3 human ovarian cancer cell line; assay: MTT cytostatic-cytotoxic activity, SKOV-3; type: cell-based
Method in brief: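 SKOV-3 and OVCAR-3 cells seeded at 1×10^4 cells/ml, treated after 24 h with 1-100 μmol/l compound for 48 h in triplicate. Viability by MTT (3 h, 37 °C), absorbance at 540 nm; GI50, TGI and IC50 computed from treated versus 24 h and 72 h control readings.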

[2] = test system: UWB1.289 human ovarian cancer cell line (mutant BRCA1); assay: MTT cytostatic-cytotoxic activity, UWB1.289; type: cell-based
Method in brief: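 UWB1.289 cells (BRCA1-null, p53-mutant) were seeded at 1×10^4 cells/ml per well and treated after 24 h with 1-100 μmol/l compound for 48 h, in triplicate. Viability was read by MTT (3 h, DMSO solubilisation, 540 nm). GI50, TGI and IC50 came from treated versus 24 h and 72 h control absorbances.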

[3] = test system: MCF-7 human breast cancer cell line; assay: MTT cytostatic-cytotoxic activity, MCF-7; type: cell-based
[4] = test system: PC-3 human hormone-resistant prostate cancer cell line; assay: MTT cytostatic-cytotoxic activity, PC-3; type: cell-based; conditions: PC-3, 48 h treatment
[5] = test system: A-549 human lung carcinoma cell line; assay: MTT cytostatic-cytotoxic activity, A-549; type: cell-based
[6] = in vivo; conditions: both sexes, mouse, in vivo, ip; C57BI/6 mice, acute toxicity
Method in brief: (§1)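 Acute toxicity in male and female C57BI/6 mice, judged by lethality. Compounds given i.p. at several doses starting at 100mg/kg. Dosed as a suspension in corn oil after initial dissolution in 10% DMSO.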

[7] = test system: C57BI/6 mice; assay: in vivo; conditions: i.p., acute toxicity
Method in brief: as §1

COc1cc(Cc2nnc3sc(-c4ccccc4N)nn23)c(S(=O)(=O)N(C)C)cc1OC [TS57, 3-[2-(N,N-dimethylosulfamoyl)-4,5-dimethoxybenzyl]-6-(2-aminophenyl)-1,2,4-triazolo[3,4-b]-1,3,4-thiazole]
GI50 ([1]; Homo sapiens, SK-OV-3, SKOV-3, 48 h treatment): > 100 µM
IC50 ([1]; Homo sapiens, SK-OV-3, SKOV-3, 48 h treatment, kills 50% of the cells): > 100 µM
TGI ([1]; SKOV-3, 48 h treatment): >100 µM
GI50 ([2]; Homo sapiens, UWB1289, 48 h, UWB1.289, 48 h treatment): > 100 µM
IC50 ([2]; Homo sapiens, UWB1289, UWB1.289, 48 h treatment, kills 50% of the cells): > 100 µM
TGI ([2]; UWB1.289, 48 h treatment): >100 µM
GI50 ([3]; Homo sapiens, MCF7, 48 h, MCF-7, 48 h treatment): > 100 µM
IC50 ([3]; Homo sapiens, MCF7, MCF-7, 48 h treatment, kills 50% of the cells): > 100 µM
TGI ([3]; MCF-7, 48 h treatment): >100 µM
GI50 ([4]; Homo sapiens): > 100 µM
IC50 ([4]; Homo sapiens, kills 50% of the cells): > 100 µM
TGI [4]: >100 µM
TGI ([5]; A-549, 48 h treatment): >100 µM
GI50 ([5]; Homo sapiens, A549, A-549, 48 h treatment): > 100 µM
IC50 ([5]; Homo sapiens, A549, A-549, 48 h treatment, kills 50% of the cells): > 100 µM
LD50 [6]: > 500 mg/kg
LD10 [7]: >500 mg/kg
LD50 [7]: >500 mg/kg
